# Data as given in patent US20260109732A1, “LIPID AMINES” (ModernaTX, Inc., priority 2021, published 2026).
# Where a name gives a salt, the structure may show the parent alone.
# Key:
# [1] = Diameter and PDI from DLS measurements of mRNA nanoparticles with lipid amines; format: physicochemical
# Method: (§1) Lipids are dissolved in ethanol at a concentration of 24 mg/mL and molar ratios of 49.0:11.2:39.3:0.5 (IL1:DSPC:cholesterol:PEG-DMG-2K) and mixed with the acidification buffer (45 mM acetate buffer at pH 4). The lipid solution and acidification buffer are mixed using a multi-inlet vortex mixer at a 3:7 volumetric ratio of lipid:buffer for mixer 1 and mixer 2 and a 1:3 volumetric ratio of lipid:buffer (25% ethanol) for mixer 3. After a 5 second residence time, the resulting nanoparticles are mixed with 55 mM sodium acetate at pH 5.6 at a volumetric ratio of 5:7 of nanoparticle:buffer. See Table 2a for mixing parameters. The resulting dilute nanoparticles are then buffer exchanged and concentrated using tangential flow filtration (TFF) into a final buffer containing 5 mM sodium acetate pH 5.0. Then a 70% sucrose solution in 5 mM acetate buffer at pH 5 is subsequently added.
# (§2) The resulting nanoparticles at a lipid concentration of 7.33 mg/mL in 5 mM acetate (pH 5) and 75 g/L sucrose are mixed with mRNA (luciferease or CFTR) at a concentration of 0.625 mg/mL in 42.5 mM sodium acetate pH 5.0, with N:P of 4.93. The nanoparticle solution and nanoparticles are mixed using a multi-inlet vortex mixer at a 3:2 volumetric ratio of nanoparticle:mRNA. Once loaded with mRNA, these intermediate nanoparticles undergo a 300 second residence time prior addition of neutralization buffer containing 120 mM TRIS pH 8.12 at a volumetric ratio of 5:1 of nanoparticle:buffer.
# (§3) For HeLa studies evaluating luciferase protein expression, PEG-DMG-2K dissolved in a 20 mM TRIS buffer (pH 7.5) is added to the neutralized intermediate nanoparticle solution at a ratio of 1:6, bringing the solution to the final molar ratios of IL1:DSPC:cholesterol:PEG-DMG-2K of 48.5:11.1:38.9:1.5%. This nanoparticle formulation is then modified with lipid amines. In a typical example, nanoparticle formulation at a concentration of 0.18 mg/mL mRNA and a 0.56 mL volume is modified with lipid amine SA50 (467.2 nmol) prepared in buffer containing 20 mM TRIS, 14.3 mM sodium acetate, 32 g/L sucrose and 140 mM NaCl-pH 7.5 at a volumetric ratio of 1:1 of nanoparticle:buffer.
# (§4) For HeLa studies evaluating CFTR protein expression, the intermediate nanoparticle formulation (1 mL, 0.415 mg mRNA) is mixed with a buffer containing 20 mM TRIS (pH 7.5), 0.9 mg/mL PEG-DMG-2K and lipid amine SA50 (647.1 nmol) at a volumetric ratio of 6:1 of nanoparticle:buffer. The resulting nanoparticle suspension undergoes concentration using a centrifugal filtration device (100 kDa molecular weight cut-off) and is diluted in running buffer (20 mM TRIS, 14.3 mM sodium acetate, and 32 g/L sucrose, pH 7.5) with a 300 mM NaCl solution to a final buffer matrix containing 70 mM NaCl.
# (§5) Both resulting nanoparticle suspensions are filtered through a 0.8/0.2 μm capsule filter and filled into glass vials at an mRNA strength of about 0.1-1 mg/mLBliophysical data (Diameter and PDI from DLS measurements and Encapsualtion using Ribogreen assay) for both luciferase and CFTR mRNA nanoparticles with lipid amines is shown in Tables 2c and d, respectively.
# [2] = system: HeLa cells; experiment: Luciferase Protein Expression Assay in HeLa Cells; format: cell-based, Human; details: LNPs encapsulating Luciferase mRNA, 25 ng per well, N=4 wells; 5 h serum-free then 24 h; ONE-Glo
# Method: as §3
# (§6) Lipid nanoparticle compositions were prepared in a manner analogous to that in example 2. To evaluate LNP cellular uptake and protein expression In Vitro, HeLa cells from ATCC.org (ATCC CCL-2) are used. The cells are cultured in complete Minimum Essential Medium (MVEM) and are plated in 96 well Cell Carrier Ultra plate with PDL coated surface (PerkinElmer) prior to running an experiment.
# Cells were transfected with buffer control (PBS) or LNPs encapsulating Luciferase mRNA (25 ng per well; N=4 replicate wells) in serum-free MEM media. LNP transfected cells were incubated for 5 h, followed by media removal and supplementation with complete MEM media. Cells were further incubated in complete MEM media overnight (24 h). Following the 24 hr incubation, luciferase protein expression was measured using the ONE-Glo™ Luciferase Assay (Promega). Cells were lysed using 1× Passive Lysis Buffer (Cat. #E194A) for 10 min in a microplate mixer at room temperature. Luciferase in the supernatant was measured by adding Luciferase Assay Reagent (Cat. #E151A) containing luciferin. Bioluminescence was then immediately measured on a Synergy H1 plate reader (BioTek). The results shown in Table 3a show the Average Relative Light Units (RLU) of each sample tested.
# [3] = Encapsulation of mRNA nanoparticles with lipid amines using Ribogreen assay; format: physicochemical
# Method: as §1, §2, §3, §4, §5
# [4] = system: HeLa cells; experiment: CFTR Protein Expression Assay in HeLa Cells; format: cell-based, Human; details: LNPs encapsulating CFTR mRNA, N=4 wells; 5 h serum-free then 24 h; immunofluorescence vs PBS control
# Method: as §4, §6
# Buffer control (PBS) and LNPs encapsulating cystic fibrosis transmembrane conductance regulator (CFTR) mRNA were dosed with MEM media in the absence of serum (N=4 replicate wells). LNP transfected cells were incubated for 5 h, followed by media removal and supplementation with complete MEM media. Cells were further incubated in complete MEM media overnight (24 h).
# Following 24 hr incubation, the cells were fixed with PFA and processed for immunofluorescence (IF) using an anti-CFTR rabbit monoclonal antibody. Briefly, the cells were permeabilized with 0.5% TX-100 for 10 min, blocked with 3% bovine serum albumin (BSA)+PBST for 1 hr at room temperature, and incubated with primary anti-CFTR monoclonal antibody overnight at 4° C. Following primary antibody incubation, the cells were incubated with Alexa 488 conjugated secondary antibody for 30 mi and stained with DAPI and HCS CellMask Blue stain. Between different incubation steps the cells were either washed with PBS or PBST. Cells were imaged using Opera Phoenix spinning disk confocal microscope (PerkinElmer), and CFTR protein expression was detected using the 488 nm channel. The image analysis was performed in Harmony 4.9, with main analysis output being CFTR intensity per cell. The results shown in Table 3b show fold-change in CFTR signal intensity per cell compared to buffer (PBS) control (NA=not available).
# [5] = CFTR mRNA nanoparticle with lipid amine
# [6] = Luciferase mRNA nanoparticle modified with lipid amine
SMILES,"Diameter (nm) [1, 5] [nm]","PDI [1, 5]","Diameter (nm) [1, 6] [nm]","PDI [1, 6]",Average Relative Light Units ± Standard Deviation [2] [Relative Light Units],"% Encapsulation (Ribogreen) [3, 5] [%]","% Encapsulation (Ribogreen) [3, 6] [%]",Average fold-change in CFTR signal intensity per cell compared to buffer control ± standard deviation [4] [fold-change]
"CC(C)CCC[C@@H](C)[C@H]1CC[C@H]2[C@@H]3CC=C4C[C@@H](OC(=O)N(CCCN)CCCCOCCCN)CC[C@]4(C)[C@H]3CC[C@]12C [SA61, (3S,8S,9S,10R,13R,14S,17R)-10,13-Dimethyl-17-((R)-6-methylheptan-2-yl)-2,3,4,7,8,9,10,11,12,13,14,15,16,17-tetradecahydro-1H-cyclopenta[a]phenanthren-3-yl (4-(3-aminopropoxy)butyl)(3-aminopropyl)carbamate dihydrochloride]",71.3,0.11,77,0.16,14343.1 ± 5298.1,99.4,99.1,7.2 ± 0.4
"CC(C)CCC[C@@H](C)[C@H]1CC[C@H]2[C@@H]3CC=C4C[C@@H](OC(=O)C(C)C(=O)N(CCCN)CCCCNCCCN)CC[C@]4(C)[C@H]3CC[C@]12C.Cl.Cl.Cl (stereo partly drawn) [SA62, (3S,8S,9S,10R,13R,14S,17R)-10,13-Dimethyl-17-((R)-6-methylheptan-2-yl)-2,3,4,7,8,9,10,11,12,13,14,15,16,17-tetradecahydro-1H-cyclopenta[a]phenanthren-3-yl 3-((3-aminopropyl)(4-((3-aminopropyl)amino)butyl)amino)-2-methyl-3-oxopropanoate trihydrochloride]",74.2,0.10,78,0.20,18807.1 ± 6618.4,99.6,99.0,5.5 ± 1.3
"CC(C)CCC[C@@H](C)[C@H]1CC[C@H]2[C@@H]3CC=C4C[C@@H](OC(=O)C(=O)N(CCCN)CCCCNCCCN)CC[C@]4(C)[C@H]3CC[C@]12C [SA66, (3S,8S,9S,10R,13R,14S,17R)-10,13-Dimethyl-17-((R)-6-methylheptan-2-yl)-2,3,4,7,8,9,10,11,12,13,14,15,16,17-tetradecahydro-1H-cyclopenta[a]phenanthren-3-yl 2-((3-aminopropyl)(4-((3-aminopropyl)amino)butyl)amino)-2-oxoacetate trihydrochloride]",75.7,0.13,72,0.18,13951.3 ± 6740.3,99.5,88.2,2.4 ± 0.1
"CC[C@H](CC[C@@H](C)[C@H]1CC[C@H]2[C@@H]3CC=C4C[C@@H](OC(=O)N(CCCN)CCCCCCCCN)CC[C@]4(C)[C@H]3CC[C@]12C)C(C)C [SA69, (3S,8S,9S,10R,13R,14S,17R)-17-((2R,5R)-5-Ethyl-6-methylheptan-2-yl)-10,13-dimethyl-2,3,4,7,8,9,10,11,12,13,14,15,16,17-tetradecahydro-1H-cyclopenta[a]phenanthren-3-yl (8-aminooctyl)(3-aminopropyl)carbamate dihydrochloride]",74.0,0.13,71,0.16,35256.9 ± 8309.9,99.9,98.9,5.3 ± 0.5
"C/C(=C/CCC(C)C)[C@H]1CC[C@H]2[C@@H]3CC=C4C[C@@H](OC(=O)N(CCCN)CCCCNCCCN)CC[C@]4(C)[C@H]3CC[C@]12C [SA70, (3S,8S,9S,10R,13R,14S,17R)-10,13-dimethyl-17-((R)-6-methylheptan-2-yl)-2,3,4,7,8,9,10,11,12,13,14,15,16,17-tetradecahydro-1H-cyclopenta[a]phenanthren-3-yl (3-aminopropyl)(4-((3-aminopropyl)amino)butyl)carbamate analog olefin elimination by-product from hydroxycholesterol]",76.2,0.16,76,0.21,11822.1 ± 4128.6,99.8,97.9,4.5 ± 0.8
"CC(C)CCC[C@@H](C)[C@H]1CC[C@H]2[C@@H]3CC=C4C[C@@H](OC(=O)CN(CCCN)CCCCCCCCN)CC[C@]4(C)[C@H]3CC[C@]12C [SA71, (3S,8S,9S,10R,13R,14S,17R)-10,13-Dimethyl-17-((R)-6-methylheptan-2-yl)-2,3,4,7,8,9,10,11,12,13,14,15,16,17-tetradecahydro-1H-cyclopenta[a]phenanthren-3-yl N-(8-aminooctyl)-N-(3-aminopropyl)glycinate trihydrochloride]",74.3,0.12,73,0.15,32758.9 ± 5897.1,99.8,99.1,6.0 ± 0.4
